Measured values: patent US20240376411A1, “IMPROVED PERFUME COMPOSITIONS COMPRISING SULFUR-CONTAINING PRO-FRAGRANCE COMPOUNDS” (FIRMENICH SA, priority 2021, published 2024)

How the values were obtained:
[1] = Sensorial evaluation (hydrogen sulfide smell) of perfume compositions upon 1 and 2 weeks of storage at 50° C.; assay type: physicochemical; details: for amount in the perfume composition that does not lead to an unpleasant hydrogen sulfide smell upon storage: conclusion from Tables 2 to 4, storage at 50° C.
Excerpt: To the first perfume composition, a perfumery raw material that promotes the formation of hydrogen sulfide ((−)-(2E)-2-ethyl-4-[(1R)-2,2,3-trimethyl-3-cyclopenten-1-yl]-2-buten-1-ol) has been added at various amounts (5 wt. %, 10 wt. %, 20 wt. %, 30 wt. %, and 40 wt. %, respectively, based on the total weight of the perfume composition). For each amount, it has been tested whether a hydrogen sulfide malodor could be perceived upon storage of the final perfume composition for 1 and 2 weeks, respectively, at 50° C.
Likewise, to the second perfume composition, a perfumery raw material that promotes the formation of hydrogen sulfide ((+/−)-3-methyl-5-phenyl-1-pentanol) has been added at various amounts (5 wt. %, 10 wt. %, 20 wt. %, 30 wt. %, and 40 wt. %, respectively, based on the total weight of the perfume composition). For each amount, it has been tested whether a hydrogen sulfide malodor could be perceived upon storage of the final perfume composition for 1 and 2 weeks, respectively, at 50° C.
Likewise, to the third perfume composition, a perfumery raw material that promotes the formation of hydrogen sulfide ((+/−)-3,7-dimethyl-6-octen-1-ol) has been added at various amounts (5 wt. %, 10 wt. %, 20 wt. %, 30 wt. %, and 40 wt. %, respectively, based on the total weight of the perfume composition). For each amount, it has been tested whether a hydrogen sulfide malodor could be perceived upon storage of the final perfume composition for 1 and 2 weeks, respectively, at 50° C.

[2] = logP above 4 (octanol-water partition coefficient); details: Yes/No
[3] = Identification of perfumery raw materials that promote hydrogen sulfide formation (1:1 w/w mix, storage, smell); assay type: physicochemical; details: raw materials named in Example 2 as not promoting; test conditions not repeated there
Method: In other words, each of the perfumery raw materials being present in the perfume composition is capable of inducing a hydrogen sulfide smell when being mixed individually in a 1:1 (w/w) ratio with the sulfur-containing pro-fragrance compound and being stored for 2 weeks at 50° C. Preferably, a hydrogen sulfide smell is induced when being mixed in a 1:1 (w/w) ratio with 3-(dodecylthio)-1-(2,6,6-trimethylcyclohex-3-en-1-yl) butan-1-one (HaloScent® D) and stored for 2 weeks at 50° C. Preferably, the mixing is carried out in a 10 mL glass jar. The perfumery raw materials may be used as such or may be dissolved in a solvent, for example at a concentration of from 10% to 50%.
Perfumery raw materials that promote the formation of hydrogen sulfide from 3-(dodecylthio)-1-(2,6,6-trimethylcyclohex-3-en-1-yl) butan-1-one (HaloScent® D) have been identified by mixing individual perfumery raw materials with 3-(dodecylthio)-1-(2,6,6-trimethylcyclohex-3-en-1-yl) butan-1-one (HaloScent® D) in a 1:1 (w/w) ratio in a 10 mL glass jar and storing said mixture for 2 weeks at 50° C. In case a hydrogen sulfide smell (similar to rotten egg odor) could be perceived after 2 weeks, it has been concluded that the perfumery raw material promotes the formation of hydrogen sulfide from 3-(dodecylthio)-1-(2,6,6-trimethylcyclohex-3-en-1-yl) butan-1-one (HaloScent® D).

[4] = 5 wt. % of the raw material in the perfume composition, even after 2 weeks of storage
[5] = 10 wt. % of the raw material in the perfume composition, even after 2 weeks of storage
[6] = above 20 wt. % of the raw material, after 1 week of storage

| Structure (SMILES) | unpleasant hydrogen sulfide smell [1, 4] | unpleasant hydrogen sulfide smell [1, 5] | amount in the perfume composition that does not lead to an unpleasant hydrogen sulfide smell upon storage [1] | logP > 4 [2] | promotion of formation of hydrogen sulfide from HaloScent® D [3] | further results |
| --- | --- | --- | --- | --- | --- | --- |
| CC/C(=C\C[C@H]1CC=C(C)C1(C)C)CO [(−)-(2E)-2-ethyl-4-[(1R)-2,2,3-trimethyl-3-cyclopenten-1-yl]-2-buten-1-ol] | no unpleasant hydrogen sulfide smell could be perceived | no unpleasant hydrogen sulfide smell could be perceived | up to 19 wt. % | Yes |  | unpleasant hydrogen sulfide smell ([1]; at 20 wt. % (and above) of the raw material, only after 1 week of storage at 50° C.): unpleasant hydrogen sulfide smell was perceived |
| CC(C)=CCCC(C)CCO (racemic) [(+/−)-3,7-dimethyl-6-octen-1-ol] | no unpleasant hydrogen sulfide smell could be perceived | no unpleasant hydrogen sulfide smell could be perceived | up to 19 wt. % | No |  | unpleasant hydrogen sulfide smell [1, 6]: unpleasant hydrogen sulfide smell was perceived |
| CC(CCO)CCc1ccccc1 (racemic) [(+/−)-3-methyl-5-phenyl-1-pentanol] | no unpleasant hydrogen sulfide smell could be perceived | no unpleasant hydrogen sulfide smell could be perceived | up to 19 wt. % | No |  | unpleasant hydrogen sulfide smell [1, 6]: unpleasant hydrogen sulfide smell was perceived |
| C=CCOC(=O)CCCCC [allyl hexanoate] |  |  |  |  | do not promote the formation of hydrogen sulfide |  |
| CCCC(=O)OCC [ethyl butanoate] |  |  |  |  | do not promote the formation of hydrogen sulfide |  |
| CC/C=C\CCOC(C)=O [(Z)-3-hexenyl acetate] |  |  |  |  | do not promote the formation of hydrogen sulfide |  |
| CC(=O)OC1CC2CC1C1CC=CC21 (stereo not drawn) [tricyclo[5.2.1.02,6]dec-¾-en-8-yl acetate] |  |  |  |  | do not promote the formation of hydrogen sulfide |  |
| CC(=O)OC1CCC(C(C)(C)C)CC1 (stereo not drawn) [4-(2-methyl-2-propanyl)cyclohexyl acetate] |  |  |  |  | do not promote the formation of hydrogen sulfide |  |
| C=CCOC(=O)COC1CCCCC1 [allyl (cyclohexyloxy)acetate] |  |  |  |  | do not promote the formation of hydrogen sulfide |  |
